Measurements from US9968631B2, “Method for treatment of pulmonary fibrosis” (Galectin Therapeutics, Inc., priority 2013, dated 2018).
Entries after “also recorded” stand apart in the source; their conditions may differ.

Columns and labels:
[1] = system: bleomycin-induced pulmonary fibrosis in C57Bl/6 mice; experiment: Late treatment of pulmonary fibrosis induced by bleomycin in C57Bl/6 mice; assay type: in vivo, mouse; settings: for lung pathology with trichrome stain (fibrosis): FIG. 14; for lung pathology with H & E (fibrosis): FIG. 15; for overall antifibrotic treatment effect: GM-CT-01 120 mg/kg, GR-MD-02 60 mg/kg IV days 10, 13, 16, 20; for Modified Ashcroft Index score vs vehicle: change did not reach significance, FIG. 11; for general fibrosis score vs vehicle: differences did not reach statistical significance, FIG. 12; for Inflammation score vs vehicle: differences not statistically significant, FIG. 13; for percent of fibrotic lung (percent of lung affected): not statistically significant
Description: In these experiments, treatment was initiated after the time when the inflammatory reaction is known to have subsided and the process is one of primarily fibrogenesis. Pulmonary fibrosis was induced in animals using bleomycin at 2.25 U/kg at day 0 as described above. Animals were treated using a GM compound intravenously (GM-CT-01) or GA-RG compound intravenously (GR-MD-02) as described in Table 2.
Animals were euthanized on Day 21 and the lungs were weighed. Data shown in FIG. 9 represent group means and standard error of the means.
The total lung hydroxyproline content was measured. Data shown in FIG. 10 represent group mean and expressed as microgram of hydroxyproline per mg of lung tissue.

[2] = system: bleomycin-induced pulmonary fibrosis in C57Bl/6 mice; experiment: Early treatment of pulmonary fibrosis induced by bleomycin in C57Bl/6 mice; assay type: in vivo, mouse; settings: for lung weight vs vehicle-treated mice / total lung hydroxyproline content vs vehicle-treated mice: Day 21, GM-CT-01 120 mg/kg; for lung weight vs vehicle-treated mice: GR-MD-02 60 mg/kg IV days -1, 2, 6, 9, 13, 16, 20, FIG. 2; for total lung hydroxyproline content vs vehicle-treated mice / Modified Ashcroft Index score, difference vs vehicle, p (unpaired t-test): GR-MD-02 60 mg/kg IV; for lung pathology with trichrome stain (fibrosis): FIG. 7; for Modified Ashcroft Index Score compared to the vehicle group: histologic analysis; for general fibrosis score, difference vs vehicle, p (unpaired t-test) / Inflammation score, difference vs vehicle, p (unpaired t-test) / Modified Ashcroft Index score, difference vs vehicle, p (unpaired t-test): outliers removed; for general fibrosis score, difference vs vehicle, p (unpaired t-test): FIG. 5; for Inflammation score, difference vs vehicle, p (unpaired t-test): FIG. 6; for Modified Ashcroft Index score, difference vs vehicle, p (unpaired t-test): GM-CT-01 120 mg/kg, FIG. 4
Description: Instillation of bleomycin in the trachea induces changes similar to diffuse pulmonary fibrosis and/or fibrosing alveolitis in humans. There is an increase in deposition and net synthesis of collagen in the lung with this model.
This model can be used to evaluate therapy started in the inflammatory phase of the belomycin insult (started<7 day after bleomycin) or after the inflammatory phase and during fibrogenesis (started>7 day after bleomycin). In this example, early therapy was evaluated.
The GM (GM-CT-01) and GA-RG (GR-MD-02) compounds were evaluated as preventative therapy in this mouse model.
Pulmonary fibrosis was induced in animals using intra-tracheal instillation of bleomycin at 2.25 U/kg. Animals were treated using a GM compound (GM-CT-01) or GA-RG compound (GR-MD-02) delivered by intravenous infusion as described in Table 1.
Animals were euthanized on Day 21 and the lungs were weighed. Data shown in FIG. 2 represent group means and SEM. Statistical comparison among all groups was performed using one-way ANOVA with Newman-Keuls multiple comparison test.
After euthanasia, the total lung hydroxyproline content was measured. Data shown in FIG. 3 represent group mean and SEM and expressed as microgram of hydroxyproline per mg of lung tissue. Statistical comparison to the “vehicle+Bleomycin” group was performed using one-way ANOVA with Holm-Sidak's multiple comparison test.

[3] = comparison in the experience of the laboratory

Substance	total lung hydroxyproline content (in words) ([1]; Day 21, GM-CT-01 120 mg/kg IV days 10, 13, 16, 20, compared with GR-MD-02, FIG. 10)	lung pathology with trichrome stain (fibrosis) [1]	lung pathology with H & E (fibrosis) [1]	overall antifibrotic treatment effect [1]	Modified Ashcroft Index score vs vehicle [1]	general fibrosis score vs vehicle [1]	Inflammation score vs vehicle [1]	percent of fibrotic lung (percent of lung affected) [1]	lung weight vs vehicle-treated mice [2]	total lung hydroxyproline content vs vehicle-treated mice ([2]; FIG. 3)	lung pathology with trichrome stain (fibrosis) [2]	results compared to pirfenadone [2, 3]	results compared to treatment with anti-TGFbeta [2, 3]	Modified Ashcroft Index Score compared to the vehicle group [2]	general fibrosis score, difference vs vehicle, p (unpaired t-test) [2]	Inflammation score, difference vs vehicle, p (unpaired t-test) [2]	Modified Ashcroft Index score, difference vs vehicle, p (unpaired t-test) [2]	lung weight vs control animals ([1]; Day 21, GR-MD-02 60 mg/kg IV days 10, 13, 16, 20, FIG. 9)	reduction of the increase in hydroxyproline ([1]; Day 21, GR-MD-02 60 mg/kg IV days 10, 13, 16, 20, did not reach significance, FIG. 10) [%]	total lung hydroxyproline content vs vehicle-treated mice ([2]; FIG. 3, listed as GA-MD-02)
1,4-β-D-Galactomannan [GM-CT-01]	less of a decrease	less effect	some reduction in the fibrosis	effective at reducing pulmonary fibrosis; also recorded: more modest positive treatment effect	little change	reduction in the fibrosis score	no change	notably reduced	significantly reduce lung weight; also recorded: significant reduction in mean lung weight; also recorded: markedly reduce lung weight	reduce lung hydroxyproline content; also recorded: significant reduction; also recorded: markedly reduce	effective at reducing fibrosis	superior to the results using pirfenadone	superior to treatment with anti-TGFbeta	significant reduction	0.0979	0.0544	0.0199	–	–	–
galactoarabino-rhamnogalacturonate [GR-MD-02]	–	effective at reducing fibrosis	marked decrease in fibrous tissue	effective at reducing pulmonary fibrosis; also recorded: strongest anifibrotic effect; also recorded: more effective than GM-CT-01	reduction in the Aschroft score	reduction in the fibrosis score	reduction in inflammation score	tended to have reduced percent of fibrotic lung	significantly reduce lung weight; also recorded: significant reduction in mean lung weight; also recorded: markedly reduce lung weight	significant reduction; also recorded: markedly reduce	effective at reducing fibrosis	superior to the results using pirfenadone	–	significant reduction	0.0206	0.0508	0.0112	decreased lung weight of the GR-MD-02 treated group as compared to control animals, this difference did not reach statistical significance	50	reduce lung hydroxyproline content
